Entries after “also recorded” stand apart in the source; their conditions may differ.
Tests used:
[1] = test system: BI-1 (TMBIM6) knockout HT1080 cells; test: Cell proliferation of knockout cells with BIA (off-target check); type: cell-based
Method: BI-1 (TMBIM6) WT HT1080 cells, BI-1 (TMBIM6) knockout HT1080 , human breast cancer cell lines MCF7, MDA-MB-231 and SKBR3 were treated with BIA 0.5, 1.0, 2.0, 5.0, 10.0 μM and cell proliferation was confirmed. Cells with proliferation of all cell lines by 5 μM BIA treatment It was confirmed that viability was inhibited (see FIG. 57).
Cell proliferation in BI-1 (TMBIM6) knockout HT1080 cells was investigated to determine if the antiproliferative effect by BIA at this dose was an off-target effect. The cell proliferation rate and AKT phosphorylation of BI-1 (TMBIM6) knockout HT1080 cells were the same with or without BIA except for high concentrations of “20 and 30 μM” (see FIG. 57).
Cell proliferation was investigated in BI-1 (TMBIM6) knockout HT1080 cells to determine if the antiproliferative effect by BIA at the dose was a non-targeted effect. The cell proliferation rate and AKT phosphorylation of BI-1 (TMBIM6) knockout HT1080 cells were the same in the treated and untreated groups of BIA except for high concentrations of “20 and 30 μM” (see FIGS. 63A and 63B).

[2] = test system: HT1080, MCF7, MDA-MB-231 and SKBR3 cell lines; test: Cell proliferation and viability of cell line panel with BIA; type: cell-based; conditions: 5 μM BIA
[3] = target: T1, binding of BI-1 and mTORC2 and ribosomes (Homo sapiens, UniProt P55061); test: PLA, immunoprecipitation and gel filtration of BI-1/mTORC2/ribosome binding; type: cell-based
T1 construct: expressed in transfected cells
T1 sequence (P55061 whole entry): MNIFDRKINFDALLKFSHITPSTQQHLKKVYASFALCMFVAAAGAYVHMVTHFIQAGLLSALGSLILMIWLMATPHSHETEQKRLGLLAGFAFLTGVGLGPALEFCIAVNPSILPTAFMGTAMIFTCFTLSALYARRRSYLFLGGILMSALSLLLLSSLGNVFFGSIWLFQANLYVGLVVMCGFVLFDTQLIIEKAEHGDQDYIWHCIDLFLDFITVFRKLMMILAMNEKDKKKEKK
Method: The graph below quantifies the fine and bright spots (n=5 independent experiment). The scale bar represents 20 μm. Data were expressed as mean±SD. **p<0.01, ****p<0.0001, followed by a binary ANOVA, followed by Bonferroni's post hoc test.
FIG. 62B is the result of PLA between RICTOR and the following proteins mTOR, RPL19 and RPS 16 in HT1080 cells treated with 10 μM BIA. The scale bar represents 20 μm. The graph on the right quantifies the fine and bright points (n=5 independent experiment). Data were expressed as mean±SD. **p<0.01, ***p<0.001, ****p<0.0001, followed by a binary ANOVA followed by Bonferroni's post hoc test.
HT1080 cells knocked out of BI-1 (using 8 10 cm cell culture dishes for each sample) were temporarily transformed using HA-BI-1 (TMBIM6) plasmids. HT1080 cells knocked out of BI-1 were treated with 10 μM of 2E-1-2-Aminophenyl-3-3-nitrophenyl-2-propen-1-one (BIA). After 24 hours, CHAPS containing protease inhibitor cocktail and phosphatase inhibitor cocktail Cells were lysed in 1.0 ml of buffer (pH 7.4, 150 mM NaCl, 1 mM EDTA and 25 mM HEPES at 0.3% CHAPS). The cell lysate was filtered with a 0.45 μm syringe filter. […] 50 μL of each fraction was electrophoresis with SDS-PAGE and then detected with various antibodies. […]

[4] = test system: human breast cancer cells labeled with DiI dye; test: Zebrafish tumor model; type: in vivo; conditions: 2 uM BIA, third day after transplantation
[5] = test system: HT1080, PANC-1, Capan-1 and MIA PaCa-2; test: Cell viability (crystal violet), BIA versus mTOR inhibitors; type: cell-based; conditions: 10 μM
[6] = test system: association between RICTOR and mTOR or between RICTOR and RPL19; test: Proximity ligation assay in PANC-1 cells; type: cell-based; conditions: PLA
Excerpt: The graph on the right quantifies the fine, bright points (n=5 independent experiment). The scale bar represents 20 μm. Data were expressed as mean±SD. **p<0.01, Bonferroni's post hoc test after binary ANOVA.

SARS-CoV2 virus = test: MTT cell viability of Vero E6 cells infected with SARS-CoV2; type: cell-based; conditions: Vero E6, SARS-CoV2 0.1 MOI, 500 nM, 24 hours after treatment; control DMSO-S 66.52±2.28%; 0.5 µM
Method: Vero E6 cells, monkey kidney cell masters, were dispensed at 1×10^4 cells/well per well in 96 well plates and incubated at 37° C., 5% CO2 incubators for 24 hours. SARS-CoV2 to infect Vero E6 cells was S ARS-CoV 43326 distributed from the National Pathogen Resource Bank, and DMEM (2% FBS, 1% antibiotic-antimycotic) medium was dispensed at 100 μL/well to infect 0.1 MOI. For 1 hour The virus was removed after 1 hour of infection in a 37° C., 5% CO2 incubator.
Next, samples prepared so that BIA or analogue compounds were finally 500 nM were dispensed 100 μL/well, including the culture medium, and then treated in a 37° C., 5% CO2 incubator for 24 hours. In the same way, the group treated with 2 μM, 5 μM, or 10 μM of Remdesivir (Rem) was a positive control.
Check the condition of the cells, add 100 μL/well of 0.5 mg/ml MTT solution, react in a 37° C., 5% CO2 incubator for 4 hours, wash out the media, and DMSO to the cells by 100 μL/well After sufficient dissolution, absorbance was measured at 540 nm with a plate reader to evaluate cell viability.
To confirm the possibility of viral prevention and therapeutic effects of BIA and its analogue compounds, 500 nM treatment of BIA analogue at the same time as viral infection, and then MTT assay whether the viability of cells against viral infection is improved after 24 hours. The results confirmed are shown in the graph of FIG. 82.

With `Nc1ccccc1C(=O)/C=C/c1cccc([N+](=O)[O-])c1` [BIA, 2E-1-2-Aminophenyl-3-3-nitrophenyl-2-propen-1-one] the dose-dependent cell survival ([1]; BI-1 (TMBIM6) knockout cells) was “did not show a decrease”, the “cell proliferation rate and AKT phosphorylation with or without BIA” value ([1]; BI-1 knockout HT1080, except for high concentrations of 20 and 30 μM) was “the same” and the “proliferation and cell viability of all cell lines” value [2] was “inhibited; also recorded: suppressed”. For the same compound, the “protein interactions between mTORC2 and ribosomes or binding of BI-1 and mTORC2 and ribosomes” value ([3]; HT1080 cells, PLA and immunoprecipitation) was “inhibited”, the “co-elution pattern with mTORC2 components (mTOR and RICTOR) and ribosomes (RPL19)” value ([3]; gel filtration, BI-1 overexpressed HT1080 cells, BIA for 24 hours) was “delayed” and the “movement of tumor cells away from the primary site” value [4] was “remained at the injection site”. For the same compound, the “cell viability compared to OSI-027 and Voxtalisib and other mTOR inhibitors” value [5] was “significantly reduced”, the “association between RICTOR and mTOR or between RICTOR and RPL19” value [6] was “reduced” and the cell viability (SARS-CoV2 virus) was 77.94±5.51%.

Reference: US20240139125A1 (INDUSTRIAL COOPERATION FOUNDATION JEONBUK NATIONAL …, priority 2020, published 2024)
